In the supplement of paper PMC10307832:

Legend:
Assay in all cases: relative viability (nuclei count vs DMSO), 5 days (fraction); higher = more cells survive
Ruxolitinib + Phenformin = compound: N#CC[C@H](C1CCCC1)n1cc(-c2ncnc3[nH]ccc23)cn1 [Ruxolitinib] + N=C(N)NC(=N)NCCc1ccccc1 [Phenformin] (partner 250 µM)
How it was run: (§1)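 Relative viability is defined as nuclei in treated wells over nuclei in vehicle wells. Duplicate plates were run and medians reported. Lung cancer cell lines in 1536-well plates were dosed by pin tool one day after seeding, with one drug or with a fixed anchor-drug dose plus five library-drug doses (not always all listed) in √10 steps, and nuclei were counted after 5 days.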

Vismodegib + Luminespib = compound: CS(=O)(=O)c1ccc(C(=O)Nc2ccc(Cl)c(-c3ccccn3)c2)c(Cl)c1 [Vismodegib] + CCNC(=O)c1noc(-c2cc(C(C)C)c(O)cc2O)c1-c1ccc(CN2CCOCC2)cc1 [Luminespib] (partner 0.01 µM)
How it was run: as §1

Ruxolitinib + Crizotinib = compound: N#CC[C@H](C1CCCC1)n1cc(-c2ncnc3[nH]ccc23)cn1 [Ruxolitinib] + C[C@@H](Oc1cc(-c2cnn(C3CCNCC3)c2)cnc1N)c1c(Cl)ccc(F)c1Cl [Crizotinib] (partner 1 µM)
How it was run: as §1

Ruxolitinib + Luminespib = compound: N#CC[C@H](C1CCCC1)n1cc(-c2ncnc3[nH]ccc23)cn1 [Ruxolitinib] + CCNC(=O)c1noc(-c2cc(C(C)C)c(O)cc2O)c1-c1ccc(CN2CCOCC2)cc1 [Luminespib] (partner 0.01 µM)
How it was run: as §1

Row | Cell Line | relative viability (Ruxolitinib + Phenformin; first compound 0.08 µM) | relative viability (Ruxolitinib + Phenformin; first compound 0.253 µM) | relative viability (Ruxolitinib + Phenformin; first compound 0.8 µM) | relative viability (Ruxolitinib + Phenformin; first compound 2.53 µM) | relative viability (Ruxolitinib + Phenformin; first compound 8 µM) | relative viability (Vismodegib + Luminespib; first compound 0.08 µM) | relative viability (Vismodegib + Luminespib; first compound 0.253 µM) | relative viability (Vismodegib + Luminespib; first compound 0.8 µM) | relative viability (Vismodegib + Luminespib; first compound 2.53 µM) | relative viability (Vismodegib + Luminespib; first compound 8 µM) | relative viability (Ruxolitinib + Crizotinib; first compound 0.08 µM) | relative viability (Ruxolitinib + Crizotinib; first compound 0.253 µM) | relative viability (Ruxolitinib + Crizotinib; first compound 0.8 µM) | relative viability (Ruxolitinib + Crizotinib; first compound 2.53 µM) | relative viability (Ruxolitinib + Crizotinib; first compound 8 µM) | relative viability (Ruxolitinib + Luminespib; first compound 0.08 µM) | relative viability (Ruxolitinib + Luminespib; first compound 0.253 µM) | relative viability (Ruxolitinib + Luminespib; first compound 0.8 µM) | relative viability (Ruxolitinib + Luminespib; first compound 2.53 µM) | relative viability (Ruxolitinib + Luminespib; first compound 8 µM)
1 | NCI-H1734 | 0.382 | 0.342 | 0.472 | 0.36 | 0.432 | 0.19 | 0.186 | 0.166 | 0.198 | 0.189 | 0.66 | 0.721 | 0.795 | 0.633 | 0.559 | 0.167 | 0.197 | 0.198 | 0.162 | 0.185
2 | NCI-H1651 | 0.313 | 0.275 | 0.351 | 0.3 | 0.354 | 0.816 | 0.819 | 0.86 | 0.866 | 0.791 | 0.8 | 0.893 | 0.847 | 0.779 | 0.842 | 0.883 | 0.902 | 0.979 | 0.73 | 0.726
3 | NCI-H1563 | 0.667 | 0.69 | 0.643 | 0.593 | 0.602 | 0.468 | 0.48 | 0.529 | 0.545 | 0.571 | 0.865 | 0.84 | 0.931 | 0.704 | 0.838 | 0.535 | 0.515 | 0.549 | 0.505 | 0.505
4 | NCI-H2170 | 0.382 | 0.391 | 0.417 | 0.374 | 0.351 | 0.677 | 0.513 | 0.762 | 0.645 | 0.7 | 1.14 | 1.23 | 1.19 | 1.05 | 1.1 | 0.687 | 0.509 | 0.954 | 0.643 | 0.817
5 | NCI-H1975 | 0.43 | 0.394 | 0.423 | 0.384 | 0.269 | 0.143 | 0.185 | 0.205 | 0.218 | 0.259 | 1.07 | 1.01 | 1.05 | 0.858 | 0.547 | 0.172 | 0.191 | 0.241 | 0.232 | 0.153
6 | NCI-H1437 | 0.341 | 0.287 | 0.29 | 0.275 | 0.271 | 0.956 | 1.13 | 1.1 | 1.09 | 1.07 | 0.924 | 1.08 | 0.872 | 0.795 | 0.778 | 1.16 | 1.26 | 1.2 | 1.13 | 0.908
7 | HOP-62 | 0.678 | 0.629 | 0.699 | 0.668 | 0.63 | 0.916 | 0.914 | 0.981 | 0.93 | 0.877 | – | 1.05 | 0.707 | 1.01 | 0.749 | 0.879 | 0.946 | 0.934 | 0.927 | 0.686
8 | NCI-H2405 | – | 0.36 | 0.404 | 0.308 | 0.312 | 0.735 | 0.691 | 0.706 | 0.686 | 0.686 | 0.853 | 0.87 | 0.984 | 0.761 | 0.596 | – | 0.654 | 0.838 | 0.481 | 0.476
9 | SK-MES-1 | 0.708 | 0.641 | 0.663 | 0.593 | 0.495 | 0.775 | 0.765 | 0.849 | 0.853 | 0.922 | 1.03 | 0.984 | 1.02 | 0.925 | 0.702 | 0.782 | 0.84 | 0.762 | 0.652 | 0.549
10 | LC-2-ad | – | 0.515 | 0.561 | 0.553 | 0.456 | 1.01 | 0.957 | 0.975 | 0.955 | 1.06 | – | 0.485 | 0.49 | 0.474 | 0.465 | – | 1 | 1 | 0.693 | 0.688
11 | NCI-H1944 | 0.201 | 0.202 | 0.215 | 0.164 | 0.151 | 0.729 | 0.716 | 0.782 | 0.758 | 0.83 | 0.99 | 0.955 | 0.998 | 0.928 | 1.02 | 0.696 | 0.628 | 0.723 | 0.73 | 0.716
12 | NCI-H322M | 0.777 | 0.768 | 0.936 | 0.962 | 1.02 | 0.876 | 0.797 | 0.881 | 0.812 | 0.818 | 0.9 | 1.27 | 1.01 | 1.1 | 1.09 | 0.806 | 0.927 | 0.918 | 0.984 | 1.17
13 | CAL-12T | 0.437 | 0.674 | 0.596 | 0.444 | 0.408 | 0.531 | 0.366 | 0.436 | 0.503 | 0.575 | 0.914 | 0.586 | 0.81 | 0.481 | 0.576 | 0.364 | 0.771 | 0.448 | 0.305 | 0.335
14 | NCI-H2228 | 0.323 | 0.299 | 0.311 | 0.264 | 0.273 | 0.225 | 0.183 | 0.182 | 0.127 | 0.18 | 0.63 | 0.36 | 0.531 | 0.492 | 0.403 | 0.131 | 0.146 | 0.118 | 0.144 | 0.148
15 | EKVX | 0.275 | 0.209 | 0.204 | 0.221 | 0.235 | 0.749 | 0.797 | 0.929 | 0.864 | 0.896 | 0.894 | 0.983 | 1.07 | 0.757 | 0.798 | 0.85 | 0.877 | 0.975 | 0.816 | 0.804
